Reference: patent US4405743A, “Pyrazolylpyrimidine derivatives” (Hokko Chemical Industry Co., Ltd., priority 1981, dated 1983)
Read-outs that look alike come from different tables or passages of the source.

Tests used:
rice plant [1] = conditions: in vivo
rice plant [2] = conditions: blast prevention test, 200 ppm
Pyricularia oryzae [3] = type: in vivo, Pyricularia oryzae on rice plant (variety: Asahi); conditions: rice blast, prevention; 200 ppm; 5 days after inoculation
Pyricularia oryzae [4] = type: in vivo, Pyricularia oryzae on rice plant (variety: Asahi); conditions: rice blast, curative treatment; sprayed liquid 200 ppm; 5 days after spraying
rice plant [5] = conditions: blast curative test, 200 ppm
Sphaerotheca friliginea = test: Effect of controlling cucumber powdery mildew, Experimental Example 4; type: in vivo; conditions: sprayed liquid 200 ppm, 10 days after inoculation
Procedure: 10 ml of each of test liquids diluted to a predetermined concentration was sprayed over seedlings of a cucumber plant (variety: Sagami Hanpaku) grown up to the first leaf stage which has been soil cultured in an unglazed pot with a diameter of 9 cm in a green house. After allowing to stand overnight, the seedlings were sprayed for inoculation with a spore suspension of Sphaerotheca friliginea. Ten days after the inoculation, the rate of a lesion area (%) was checked and a control value was evaluated from the following equation. The degree of chemical injury against a cucumber plant was determined in the same manner as in Experimental Example.

Cochliobolus miyabeanus = test: Effect of controlling rice brown spot, Experimental Example 3; type: in vivo, Cochliobolus miyabeanus on rice plant (variety: Asahi); conditions: sprayed liquid 500 ppm, 5 days after inoculation

| SMILES | Degree of chemical injury (rice plant [1]) | Degree of chemical injury (rice plant [2]) | Control Value (Pyricularia oryzae [3]) [%] | Control Value (Pyricularia oryzae [4]) [%] | Degree of chemical injury (rice plant [5]) | Degree of chemical injury (cucumber plant; in vivo) | Control Value (Sphaerotheca friliginea) [%] | Control Value (Cochliobolus miyabeanus) [%] | Degree of chemical injury (cucumber plant; 200 ppm) |
| --- | --- | --- | --- | --- | --- | --- | --- | --- | --- |
| Cc1cc(SC#N)nc(-n2nc(C)cc2C)n1 [Comparative Chemical 3] | 5 |  |  |  |  |  |  |  |  |
| CCOc1ccnc(-n2nc(C)cc2C)n1 [Compound 1] | 0 | 0 | 100 | 100 | 0 | 0 | 90 | 99 |  |
| CCSc1ccnc(-n2nc(C)cc2C)n1 [Compound 2] | 0 | 0 | 100 | 100 | 0 | 0 | 88 | 94 |  |
| Cc1cc(C)n(-c2nccc(Oc3ccccc3)n2)n1 [Compound 3] | 0 | 0 | 100 | 98 | 0 | 0 | 94 | 100 |  |
| Cc1cc(Sc2ccc(Cl)cc2)nc(-n2nc(C)cc2C)n1 [Compound 5] | 0 | 0 | 100 | 100 | 0 | 0 | 85 | 100 |  |
| Cc1cc(Oc2ccccc2Cl)nc(-n2nc(C)cc2C)n1 [Compound 6] | 0 | 0 | 100 | 88 | 0 | 0 | 100 | 100 |  |
| Cc1cc(Oc2cccc(Cl)c2)nc(-n2nc(C)cc2C)n1 [Compound 7] | 0 | 0 | 100 | 100 | 0 | 0 | 100 | 100 |  |
| Cc1cc(Oc2ccc(Br)cc2)nc(-n2nc(C)cc2C)n1 [Compound 8] | 0 | 0 | 100 |  |  | 0 | 78 | 61 |  |
| Cc1cc(Oc2ccc(F)cc2)nc(-n2nc(C)cc2C)n1 [Compound 9] | 0 | 0 | 100 | 100 | 0 | 0 | 100 | 100 |  |
| Cc1cc(Oc2ccc(I)cc2)nc(-n2nc(C)cc2C)n1 [Compound 10] | 0 | 0 | 100 |  |  |  |  | 60 |  |
| Cc1cc(Oc2ccccc2C)nc(-n2nc(C)cc2C)n1 [Compound 11] | 0 | 0 | 100 | 100 | 0 | 0 | 90 | 100 |  |
| Cc1cccc(Oc2cc(C)nc(-n3nc(C)cc3C)n2)c1 [Compound 12] | 0 | 0 | 100 | 100 | 0 | 0 | 100 | 100 |  |
| Cc1ccc(Oc2cc(C)nc(-n3nc(C)cc3C)n2)cc1 [Compound 13] | 0 | 0 | 100 | 100 | 0 | 0 | 100 | 100 |  |
| Cc1cc(Oc2ccc(C(C)C)cc2)nc(-n2nc(C)cc2C)n1 [Compound 14] | 0 | 0 | 100 | 92 | 0 | 0 | 100 | 94 |  |
| Cc1cc(Oc2ccc(C(C)(C)C)cc2)nc(-n2nc(C)cc2C)n1 [Compound 15] | 0 | 0 | 100 | 100 | 0 | 0 | 91 | 81 |  |
| Cc1ccc(Sc2cc(C)nc(-n3nc(C)cc3C)n2)cc1 [Compound 16] | 0 | 0 | 100 | 100 | 0 |  |  | 100 |  |
| COc1ccc(Oc2cc(C)nc(-n3nc(C)cc3C)n2)cc1 [Compound 17] | 0 | 0 | 100 | 100 | 0 | 0 | 100 | 100 |  |
| CSc1ccc(Oc2cc(C)nc(-n3nc(C)cc3C)n2)cc1 [Compound 18] | 0 | 0 | 100 |  |  |  |  | 90 |  |
| Cc1cc(Oc2ccc(C#N)cc2)nc(-n2nc(C)cc2C)n1 [Compound 19] |  | 0 | 100 |  |  |  |  |  |  |
| Cc1cc(Oc2ccc([N+](=O)[O-])cc2)nc(-n2nc(C)cc2C)n1 [Compound 20] | 0 | 0 | 82 |  |  | 0 | 78 | 91 |  |
| Cc1cc(Oc2cccc(C(F)(F)F)c2)nc(-n2nc(C)cc2C)n1 [Compound 21] | 0 | 0 | 100 |  |  | 0 | 86 | 77 |  |
| CCOC(=O)c1ccc(Oc2cc(C)nc(-n3nc(C)cc3C)n2)cc1 [Compound 22] | 0 | 0 | 100 |  |  |  |  | 100 |  |
| Cc1cc(Oc2ccc(Cl)c(Cl)c2)nc(-n2nc(C)cc2C)n1 [Compound 24] | 0 | 0 | 92 | 84 | 0 | 0 |  | 89 |  |
| Cc1cc(Oc2ccc(Cl)c(C)c2)nc(-n2nc(C)cc2C)n1 [Compound 26] | 0 | 0 | 100 |  |  |  |  | 100 |  |
| Cc1cc(Oc2ccc([N+](=O)[O-])c(C)c2)nc(-n2nc(C)cc2C)n1 [Compound 31] |  | 0 | 100 | 84 | 0 |  | 77 |  | 0 |
